Values after ≈ are worked out from the molar mass of the structure shown. Peptide text beside a SMILES is read from it.
Columns and labels:
Assay type in all cases: cell-based
E. coli SH ? (APHA) = assay: antimicrobial susceptibility testing, VITEK 2 AST Cards; on Interpretation: key: S, susceptible; I, intermediate; R, resistant
Method: (§1) Beta-lactamase clinical samples were collected from University Hospitals Leuven and tested for ESBL production using the disk diffusion method^61. The beta-lactamase reference isolates were purchased from IHMA International Health management associates. Bacterial strains were cultivated in Mueller Hinton Broth (MHB, Difco) at 37° C. Whenever required growth media were supplemented with appropriate antibiotic to the medium or plates (kanamycin 30 μg/mL, L-arabinose 0.5 mg/mL, and IPTG 1 mM/mL). Escherichia coli BL21 (Thermo Fisher Scientific, Belgium) was used for cloning and plasmid amplification. For selection of antibiotic resistance colonies, E. coli carrying plasmids was grown in LB agar plates supplemented with the relevant antibiotic. Bacterial CFU counting was done on blood agar plates (BD Biosciences, Belgium) or MHA agar plates. Species identification and antibiograms for all clinical isolates were performed using MALDI-Tof and VITEK® 2 automated system (BioMérieux, France).

E. coli NDM ? b = assay: as above
Method: as §1

E. coli TEM-206 = assay: as above
Method: as §1

E. coli NDM ? a = assay: as above
Method: as §1

E. coli TEM-1 ? = test system: E. coli TEM-1 ?
Method: as §1

E. coli TEM-30 = test system: E. coli TEM-30; on Interpretation: key: S, susceptible; I, intermediate; R, resistant
Method: as §1

E. coli TEM-148 = test system: E. coli TEM-148; on Interpretation: key: S, susceptible; I, intermediate; R, resistant
Method: as §1

E. coli TEM-104 = test system: E. coli TEM-104; on Interpretation: key: S, susceptible; I, intermediate; R, resistant
Method: as §1

E. coli strain UZ_TEM104 = settings: in presence of additive at 50 μg/mL
Wherever Interpretation is given: key: S, susceptible; I, intermediate; R, resistant.

CO/N=C(\C(=O)N[C@@H]1C(=O)N2C(C(=O)OC(C)OC(C)=O)=C(COC(N)=O)CS[C@H]12)c1ccco1 (stereo partly drawn)
Interpretation (E. coli SH ? (APHA)): R | Interpretation (E. coli NDM ? b): R | MIC (E. coli NDM ? b): ≥ 64 µg/mL | Interpretation (E. coli TEM-206): R | MIC (E. coli TEM-206): ≥ 64 µg/mL | Interpretation (E. coli NDM ? a): R | MIC (E. coli NDM ? a): ≥ 64 µg/mL | Interpretation (E. coli TEM-1 ?): R | MIC (E. coli TEM-1 ?): ≥ 64 µg/mL | Interpretation (E. coli TEM-30): R | MIC (E. coli TEM-30): ≥ 64 µg/mL | Interpretation (E. coli TEM-148): R | MIC (E. coli TEM-148): ≥ 64 µg/mL | Interpretation (E. coli TEM-104): S | MIC (E. coli TEM-104): 4 µg/mL (≈ 7.84 µM)

NCC[C@H](O)C(=O)N[C@@H]1C[C@H](N)[C@@H](O[C@H]2O[C@H](CN)[C@@H](O)[C@H](O)[C@H]2O)[C@H](O)[C@H]1O[C@H]1O[C@H](CO)[C@@H](O)[C@H](N)[C@H]1O [Amikacin]
Interpretation (E. coli SH ? (APHA)): S | Interpretation (E. coli NDM ? b): S | Interpretation (E. coli TEM-206): S | MIC (E. coli TEM-206): ≤ 2 µg/mL | Interpretation (E. coli NDM ? a): S | Interpretation (E. coli TEM-1 ?): S | MIC (E. coli TEM-1 ?): ≤ 2 µg/mL | Interpretation (E. coli TEM-148): S | MIC (E. coli TEM-148): ≤ 2 µg/mL | Interpretation (E. coli TEM-104): S | MIC (E. coli TEM-104): ≤ 2 µg/mL

CC(C)(O/N=C(\C(=O)N[C@@H]1C(=O)N2C(C(=O)[O-])=C(C[n+]3ccccc3)CS[C@H]12)c1csc(N)n1)C(=O)O [C ? dime]
Interpretation (E. coli SH ? (APHA)): R | MIC (E. coli SH ? (APHA)): ≥ 64 µg/mL | Interpretation (E. coli NDM ? b): R | MIC (E. coli NDM ? b): ≥ 64 µg/mL | Interpretation (E. coli TEM-206): R | MIC (E. coli TEM-206): 16 µg/mL (≈ 29.3 µM) | Interpretation (E. coli NDM ? a): R | MIC (E. coli NDM ? a): ≥ 64 µg/mL | Interpretation (E. coli TEM-1 ?): R | MIC (E. coli TEM-1 ?): 16 µg/mL (≈ 29.3 µM) | MIC (E. coli TEM-30): ≤ 1 µg/mL | MIC (E. coli TEM-148): ≤ 1 µg/mL | Interpretation (E. coli TEM-104): S | MIC (E. coli TEM-104): ≤ 1 µg/mL

CO/N=C(\C(=O)N[C@@H]1C(=O)N2C(C(=O)[O-])=C(C[N+]3(C)CCCC3)CS[C@H]12)c1csc(N)n1 [C ? ime]
Interpretation (E. coli SH ? (APHA)): R | MIC (E. coli SH ? (APHA)): 16 µg/mL (≈ 33.3 µM) | Interpretation (E. coli NDM ? b): R | MIC (E. coli NDM ? b): ≥ 64 µg/mL | Interpretation (E. coli TEM-206): R | MIC (E. coli TEM-206): ≥ 64 µg/mL | Interpretation (E. coli NDM ? a): R | MIC (E. coli NDM ? a): ≥ 64 µg/mL | Interpretation (E. coli TEM-1 ?): R | MIC (E. coli TEM-1 ?): ≥ 64 µg/mL | MIC (E. coli TEM-30): ≤ 1 µg/mL | MIC (E. coli TEM-148): 2 µg/mL (≈ 4.16 µM) | Interpretation (E. coli TEM-104): S | MIC (E. coli TEM-104): ≤ 1 µg/mL

CO[C@@]1(NC(=O)Cc2cccs2)C(=O)N2C(C(=O)O)=C(COC(N)=O)CS[C@@H]21 [C ? tin]
Interpretation (E. coli TEM-206): S | MIC (E. coli TEM-206): ≤ 4 µg/mL | Interpretation (E. coli TEM-1 ?): S

CO/N=C(\C(=O)N[C@@H]1C(=O)N2C(C(=O)O)=C(COC(N)=O)CS[C@H]12)c1ccco1 [C ? xime]
Interpretation (E. coli SH ? (APHA)): R | Interpretation (E. coli NDM ? b): R | MIC (E. coli NDM ? b): ≥ 64 µg/mL | Interpretation (E. coli TEM-206): R | MIC (E. coli TEM-206): ≥ 64 µg/mL | Interpretation (E. coli NDM ? a): R | MIC (E. coli NDM ? a): ≥ 64 µg/mL | Interpretation (E. coli TEM-1 ?): R | MIC (E. coli TEM-1 ?): ≥ 64 µg/mL | Interpretation (E. coli TEM-30): R | MIC (E. coli TEM-30): ≥ 64 µg/mL | Interpretation (E. coli TEM-148): R | MIC (E. coli TEM-148): ≥ 64 µg/mL | Interpretation (E. coli TEM-104): S | MIC (E. coli TEM-104): 4 µg/mL (≈ 9.43 µM)

CO/N=C(\C(=O)N[C@@H]1C(=O)N2C(C(=O)O)=C(COC(C)=O)CS[C@H]12)c1csc(N)n1 [Cef ? axime]
Interpretation (E. coli SH ? (APHA)): R | MIC (E. coli SH ? (APHA)): ≥ 64 µg/mL | Interpretation (E. coli NDM ? b): R | MIC (E. coli NDM ? b): ≥ 64 µg/mL | Interpretation (E. coli TEM-206): R | MIC (E. coli TEM-206): ≥ 64 µg/mL | Interpretation (E. coli NDM ? a): R | MIC (E. coli NDM ? a): ≥ 64 µg/mL | Interpretation (E. coli TEM-1 ?): R | MIC (E. coli TEM-1 ?): ≥ 64 µg/mL | Interpretation (E. coli TEM-30): R | MIC (E. coli TEM-30): 4 µg/mL (≈ 8.78 µM) | Interpretation (E. coli TEM-148): R | MIC (E. coli TEM-148): 16 µg/mL (≈ 35.1 µM) | Interpretation (E. coli TEM-104): S | MIC (E. coli TEM-104): ≤ 1 µg/mL

C[C@H]1COc2c(N3CCN(C)CC3)c(F)cc3c(=O)c(C(=O)O)cn1c23 [Levofloxacin]
Interpretation (E. coli SH ? (APHA)): S | Interpretation (E. coli TEM-206): R

C[C@@H](O)[C@H]1C(=O)N2C(C(=O)O)=C(S[C@@H]3CN[C@H](C(=O)N(C)C)C3)[C@H](C)[C@H]12 [Meropen ? m]
Interpretation (E. coli SH ? (APHA)): S | MIC (E. coli SH ? (APHA)): ≤ 0.25 µg/mL | Interpretation (E. coli NDM ? b): I | MIC (E. coli NDM ? b): 8 µg/mL (≈ 20.9 µM) | Interpretation (E. coli TEM-206): S | MIC (E. coli TEM-206): ≤ 0.25 µg/mL | Interpretation (E. coli NDM ? a): R | MIC (E. coli NDM ? a): ≥ 16 µg/mL | Interpretation (E. coli TEM-1 ?): S | MIC (E. coli TEM-1 ?): ≤ 0.25 µg/mL | Interpretation (E. coli TEM-30): S | MIC (E. coli TEM-30): ≤ 0.25 µg/mL | Interpretation (E. coli TEM-148): S | MIC (E. coli TEM-148): ≤ 0.25 µg/mL | Interpretation (E. coli TEM-104): S

O=C1CN(/N=C/c2ccc([N+](=O)[O-])o2)C(=O)N1 [Nitrofuran ?]
Interpretation (E. coli SH ? (APHA)): S | MIC (E. coli SH ? (APHA)): ≤ 16 µg/mL | Interpretation (E. coli NDM ? b): R | MIC (E. coli NDM ? b): 64 µg/mL (≈ 269 µM) | Interpretation (E. coli TEM-206): S | Interpretation (E. coli NDM ? a): R | MIC (E. coli NDM ? a): 64 µg/mL (≈ 269 µM) | Interpretation (E. coli TEM-1 ?): S | MIC (E. coli TEM-1 ?): ≤ 16 µg/mL | Interpretation (E. coli TEM-30): S | MIC (E. coli TEM-30): 32 µg/mL (≈ 134 µM) | Interpretation (E. coli TEM-148): S | MIC (E. coli TEM-148): 32 µg/mL (≈ 134 µM) | Interpretation (E. coli TEM-104): S

CO[C@@]1(NC(=O)C(C(=O)O)c2ccsc2)C(=O)N2[C@@H](C(=O)O)C(C)(C)S[C@@H]21 (stereo partly drawn) [T ? cillin]
Interpretation (E. coli TEM-206): S

CC(=O)N[C@@H](CCCNC(=N)N)C(=O)N[C@@H](Cc1ccccc1)C(=O)N[C@@H](Cc1ccccc1)C(=O)N[C@@H](C)C(=O)N[C@@H](C)C(=O)N[C@@H](Cc1ccccc1)C(=O)N[C@@H](CS)C(=O)N[C@@H](CC(C)C)C(=O)N[C@@H](CCCNC(=N)N)C(=O)N[C@@H](CCCNC(=N)N)C(=O)N[C@@H](CCCNC(=N)N)C(=O)N1CCC[C@H]1C(=O)N[C@@H](Cc1ccccc1)C(=O)N[C@@H](Cc1ccccc1)C(=O)N[C@@H](C)C(=O)N[C@@H](C)C(=O)N[C@@H](Cc1ccccc1)C(=O)N[C@@H](CS)C(=O)N[C@@H](CC(C)C)C(=O)N[C@@H](CCCNC(=N)N)C(=O)N[C@@H](CCCNC(=N)N)C(N)=O [TEM1.0] (Ac-RFFAAFCLRRRPFFAAFCLRR-NH2)
MIC penicillin (E. coli strain UZ_TEM104): 1600 µg/mL

CN(C)c1cc(NC(=O)CNC(C)(C)C)c(O)c2c1C[C@H]1C[C@H]3[C@H](N(C)C)C(O)=C(C(N)=O)C(=O)[C@@]3(O)C(O)=C1C2=O [Tig ? cycline]
Interpretation (E. coli SH ? (APHA)): S

NC[C@H]1O[C@H](O[C@H]2[C@H](O)[C@@H](O[C@H]3O[C@H](CO)[C@@H](O)[C@H](N)[C@H]3O)[C@H](N)C[C@@H]2N)[C@H](N)C[C@@H]1O [Tobramycin]
Interpretation (E. coli NDM ? b): S | Interpretation (E. coli TEM-206): S | MIC (E. coli TEM-206): ≤ 1 µg/mL | Interpretation (E. coli TEM-1 ?): S | MIC (E. coli TEM-1 ?): ≤ 1 µg/mL | Interpretation (E. coli TEM-148): S | MIC (E. coli TEM-148): ≤ 1 µg/mL | Interpretation (E. coli TEM-104): S | MIC (E. coli TEM-104): ≤ 1 µg/mL

Colistin
Interpretation (E. coli SH ? (APHA)): S | MIC (E. coli SH ? (APHA)): ≤ 0.5 µg/mL | Interpretation (E. coli NDM ? b): S | MIC (E. coli NDM ? b): ≤ 0.5 µg/mL | Interpretation (E. coli TEM-206): S | MIC (E. coli TEM-206): ≤ 0.5 µg/mL | Interpretation (E. coli NDM ? a): S | MIC (E. coli NDM ? a): ≤ 0.5 µg/mL | Interpretation (E. coli TEM-1 ?): S | MIC (E. coli TEM-1 ?): ≤ 0.5 µg/mL | Interpretation (E. coli TEM-30): S | MIC (E. coli TEM-30): ≤ 0.5 µg/mL | Interpretation (E. coli TEM-148): S | MIC (E. coli TEM-148): ≤ 0.5 µg/mL | Interpretation (E. coli TEM-104): S | MIC (E. coli TEM-104): ≤ 0.5 µg/mL

Gentamicin
Interpretation (E. coli SH ? (APHA)): R | Interpretation (E. coli NDM ? b): S | MIC (E. coli NDM ? b): ≤ 1 µg/mL | Interpretation (E. coli TEM-206): S | MIC (E. coli TEM-206): ≤ 1 µg/mL | Interpretation (E. coli NDM ? a): R | MIC (E. coli NDM ? a): ≥ 16 µg/mL | Interpretation (E. coli TEM-1 ?): S | MIC (E. coli TEM-1 ?): ≤ 1 µg/mL | Interpretation (E. coli TEM-30): R | MIC (E. coli TEM-30): ≥ 16 µg/mL | Interpretation (E. coli TEM-148): S | MIC (E. coli TEM-148): ≤ 1 µg/mL | Interpretation (E. coli TEM-104): S | MIC (E. coli TEM-104): ≤ 1 µg/mL

Reference: patent publication US20240165196A1, “Beta-Lactamase Inhibitors” (VIB VZW, priority 2021, published 2024)
